Data on 4 molecules can be found in PMC3591338, “Kinetics of Isomerization and Inversion of Aspartate 58 of αA-Crystallin Peptide Mimics under Physiological Conditions” (PLoS ONE, 2013).

This series in a line: Heating experiments: succinimide formation (dehydration) from Asp isomer peptides. In kind it is physicochemical. The conditions noted are these: chemical stability, PBS pH 7.4, 70°C, RP-HPLC peak areas, 215 nm. Here is the method:
To determine the rate constant for the conversion the Asp isomers to succinimides in the T6 peptide, the T6-Lα, T6-Lβ, T6-Dα and T6-Dβ peptides were dissolved in PBS (pH7.4) and were incubated at 50, 60, 70, 80, and 90°C for 0.4–31 days.
After the incubation of the 4 isomeric peptides, these peptides were subjected to HPLC. Since the four isomeric T6 peptides are clearly separated by RP-HPLC chromatography, we can measure the relative amounts of the peptides produced by the incubation from the peak areas of the 4 isomeric peptides in the chromatogram. The results are as follows: [drawing 11] (4 - 1) [drawing 12] (4 - 2) [drawing 13] (4 - 3) [drawing 14] (4 - 4) where [L-α-Asp]%, [L-β-Asp]%, [D-α-Asp]%, and [D-β-Asp]% are relative amounts (%) of L-α-Asp, L-β-Asp, D-α-Asp and D-β-Asp, and [L-α-Asp], [L-β-Asp], [D-α-Asp] and [D-β-Asp] represent the concentration of L-α-Asp, L-β-Asp, D-α-Asp and D-β-Asp respectively, which are calculated from the peak area in the RP-HPLC chromatogram. We plotted the relative amounts against incubation time. Subsequently, we drew fitted curves for this plot as follows:f1(t) for L-α-Asp, f2(t) for L-β-Asp, f3(t) for D-α-Asp, f4(t) for D-β-Asp.
The rate constants of the conversion of the peptide isomers can be expressed as follows: [drawing 15] (5 - 1) [drawing 16] (5 - 2) [drawing 17] (5 - 3) [drawing 18] (5 - 4) where [L-succinimide]% and [D-succinimide]% represent the relative amounts of L-succinimide and D-succinimide as a percentage, t is time (day), k1 is the rate constant for the conversion of L-α-Asp to L-succinimide (day^−1), k2 is the rate constant for the conversionof L-succinimide to L-α-Asp (day^−1), k3 is the rate constant for the conversion of L-β-Asp to L-succinimide (day^−1), k4 is the rate constant for the conversion of L-succinimide to L-β-Asp (day^−1), k5 is the rate constant for the conversion of D-α-Asp to D-succinimide (day^−1), k6 is the rate constant for the conversion of D-succinimide to D-α-Asp (day^−1), k7 is the rate constant for the conversion of D-β-Asp to D-succinimide (day^−1), k8 is the rate constant for the conversion of D-succinimide to D-β-Asp (day^−1), and f1’(t), f2’(t), f3’(t) and f4’(t) are derivatives of f1(t), f2(t), f3(t) and f4(t). At t = 0 day, [L-α-Asp]% and [L-succinimide]% are 100% and 0% respectively, therefore, Eq. (5-1) can be expressed as: […]
We determined k1, k3, k5 and k7 at five temperatures (50, 60, 70, 80 and 90°C) by using Eq. (6-1), (6-2), (6-3), (6-4). The Arrhenius equation shown below gives the activation energy of the degradation reaction. [drawing 23] […] From Eq. (7), we calculated k1, k3, k5 and k7 at 37°C using k1, k3, k5 and k7 from five temperatures (50, 60, 70, 80 and 90°C).

Where a SMILES comes first, the peptide text is derived from it.

For the molecule `CC[C@H](C)[C@H](NC(=O)CNC(=O)[C@H](CO)NC(=O)C[C@H](NC(=O)[C@H](CC(C)C)NC(=O)[C@@H](NC(=O)[C@@H](N)[C@@H](C)O)C(C)C)C(=O)O)C(=O)N[C@@H](CO)C(=O)N[C@@H](CCC(=O)O)C(=O)N[C@H](C(=O)N[C@@H](CCCNC(=N)N)C(=O)O)C(C)C` [T6-Lβ] (HELM PEPTIDE1{T.V.L.[O=C(O)[C@H](CC(=O)[*:2])N[*:1]].S.G.I.S.E.V.R}$$$$V2.0), the “amount of peptide remaining after 10 days of incubation at 70°C” value (“amount of peptide remaining” below) is recorded as “more than 80%”. Regarding `CC[C@H](C)[C@H](NC(=O)CNC(=O)[C@H](CO)NC(=O)[C@H](CC(=O)O)NC(=O)[C@H](CC(C)C)NC(=O)[C@@H](NC(=O)[C@@H](N)[C@@H](C)O)C(C)C)C(=O)N[C@@H](CO)C(=O)N[C@@H](CCC(=O)O)C(=O)N[C@H](C(=O)N[C@@H](CCCNC(=N)N)C(=O)O)C(C)C` [T6-Lα] (H-TVLDSGISEVR-OH), the “amount of peptide remaining” value is listed as 30%.

Consider `CC[C@H](C)[C@H](NC(=O)CNC(=O)[C@H](CO)NC(=O)C[C@@H](NC(=O)[C@H](CC(C)C)NC(=O)[C@@H](NC(=O)[C@@H](N)[C@@H](C)O)C(C)C)C(=O)O)C(=O)N[C@@H](CO)C(=O)N[C@@H](CCC(=O)O)C(=O)N[C@H](C(=O)N[C@@H](CCCNC(=N)N)C(=O)O)C(C)C` [T6-Dβ] (HELM PEPTIDE1{T.V.L.[O=C(O)[C@@H](CC(=O)[*:2])N[*:1]].S.G.I.S.E.V.R}$$$$V2.0), for which the “amount of peptide remaining” value is recorded as “more than 80%”.

As to `CC[C@H](C)[C@H](NC(=O)CNC(=O)[C@H](CO)NC(=O)[C@@H](CC(=O)O)NC(=O)[C@H](CC(C)C)NC(=O)[C@@H](NC(=O)[C@@H](N)[C@@H](C)O)C(C)C)C(=O)N[C@@H](CO)C(=O)N[C@@H](CCC(=O)O)C(=O)N[C@H](C(=O)N[C@@H](CCCNC(=N)N)C(=O)O)C(C)C` [T6-Dα] (HELM PEPTIDE1{T.V.L.[dD].S.G.I.S.E.V.R}$$$$V2.0), the “amount of peptide remaining” value is given as 40%.
